The values below are quoted from earlier work in patent US11622994B2, “Therapy for vitiligo” (Clinuvel Pharmaceuticals Limited, priority 2008, dated 2023).

In one series the test system is frog skin. The conditions noted are these: frog skin bioassay; versus native alpha-MSH.
For series [1], the system named is cultured human keratinocytes. The note with it: versus native alpha-MSH.

As to Nle^4-D-Phe^7-alpha-MSH, the melanin synthesis entry in the series on human volunteers is “can induce melanin synthesis”. In addition, the “potency relative to the native hormone at inducing pigmentation” value (in the series on frog skin; in series [1]) was 10 to 1,000 fold each time.
